Laboratory results reported in patent US12624050B2, “Three fused ring derivative-containing salt or crystal form and pharmaceutical composition thereof” (Shanghai Hansoh Biomedical Co., Ltd., priority 2019, dated 2026).

What was measured:
PI3Kβ = molecular target: T1, PI3Kβ (Homo sapiens, UniProt P42338); assay: ADP-Glo Lipid Kinase Assay, PI3Kβ kinase activity; assay type: biochemical; details: ratio of IC50 values
T1 construct: purchased Carna #11-102
Procedure: (§1) In this experiment, ADP-Glo Lipid Kinase Assay (Promega #V9102) from Promega was used. The lipid kinases PI3Kα/β/γ/δ catalyzed the ATP-to-ADP reaction in the presence of the substrate PIP2:3PS and ATP. The lipid kinase activity was characterized by measuring the ADP content in the reaction, and the half inhibition concentrations IC50 of the compounds on PI3Kα/β/γ/δ kinase activity were obtained.
(§2) Kinase reactions were carried out in white 384-well plates (Perkin Elmer #6007299). 2 μL of the compound of various concentrations diluted with ddH2O containing 1% DMSO was added to each well, and 2 μL of ddH2O containing 1% DMSO was added to positive control wells. Then 2 μL of 0.1 to 2 nM PI3K kinase solution diluted with 5× kinase buffer (HEPES 250 mM, MgCl2 15 mM, NaCl 250 mM, BSA 0.05%) was added to each well, and 2 μL of 5× kinase buffer was added to the negative control wells. 4 μL of 50 μM substrate PIP2:3PS (Promega #V1701) prepared with 10× Dilution buffer and ddH2O was added to all wells. Finally, 2 μL of 50 to 100 μM ATP solution diluted with water was added to start the reaction. After the reaction was carried out at room temperature for 90 to 120 minutes, 10 µL of ADP-Glo Reagent (containing 10 mM MgCl2) was added to each well, and the reaction was carried out at room temperature for 60 minutes to eliminate excess adenosine triphosphate (ATP) in the reaction. Then 20 μL of Kinase Detection Reagent was added to each well. After the reaction was carried out for 20 minutes at room temperature in the dark, the chemiluminescence was measured by BioTek Synergy H1 microplate reader.
(§3) The percentage inhibition data of the compound-treated well was calculated from positive control wells (DMSO control wells) and negative control wells (no kinase added) on the plate {% inhibition=100−[(test compound value−negative control value)]/(positive control value-negative control value)×100}. IC50 values were calculated using GraphPad prism and using a four-parameter nonlinear logistic formula to fit the data of different concentrations and corresponding percent inhibition.

PI3Kγ = molecular target: T2, PI3Kγ (Homo sapiens, UniProt P48736); assay: ADP-Glo Lipid Kinase Assay, PI3Kγ kinase activity; assay type: biochemical; details: ratio of IC50 values
T2 construct: purchased Thermofisher #PV4786
T2 sequence (P48736 whole entry): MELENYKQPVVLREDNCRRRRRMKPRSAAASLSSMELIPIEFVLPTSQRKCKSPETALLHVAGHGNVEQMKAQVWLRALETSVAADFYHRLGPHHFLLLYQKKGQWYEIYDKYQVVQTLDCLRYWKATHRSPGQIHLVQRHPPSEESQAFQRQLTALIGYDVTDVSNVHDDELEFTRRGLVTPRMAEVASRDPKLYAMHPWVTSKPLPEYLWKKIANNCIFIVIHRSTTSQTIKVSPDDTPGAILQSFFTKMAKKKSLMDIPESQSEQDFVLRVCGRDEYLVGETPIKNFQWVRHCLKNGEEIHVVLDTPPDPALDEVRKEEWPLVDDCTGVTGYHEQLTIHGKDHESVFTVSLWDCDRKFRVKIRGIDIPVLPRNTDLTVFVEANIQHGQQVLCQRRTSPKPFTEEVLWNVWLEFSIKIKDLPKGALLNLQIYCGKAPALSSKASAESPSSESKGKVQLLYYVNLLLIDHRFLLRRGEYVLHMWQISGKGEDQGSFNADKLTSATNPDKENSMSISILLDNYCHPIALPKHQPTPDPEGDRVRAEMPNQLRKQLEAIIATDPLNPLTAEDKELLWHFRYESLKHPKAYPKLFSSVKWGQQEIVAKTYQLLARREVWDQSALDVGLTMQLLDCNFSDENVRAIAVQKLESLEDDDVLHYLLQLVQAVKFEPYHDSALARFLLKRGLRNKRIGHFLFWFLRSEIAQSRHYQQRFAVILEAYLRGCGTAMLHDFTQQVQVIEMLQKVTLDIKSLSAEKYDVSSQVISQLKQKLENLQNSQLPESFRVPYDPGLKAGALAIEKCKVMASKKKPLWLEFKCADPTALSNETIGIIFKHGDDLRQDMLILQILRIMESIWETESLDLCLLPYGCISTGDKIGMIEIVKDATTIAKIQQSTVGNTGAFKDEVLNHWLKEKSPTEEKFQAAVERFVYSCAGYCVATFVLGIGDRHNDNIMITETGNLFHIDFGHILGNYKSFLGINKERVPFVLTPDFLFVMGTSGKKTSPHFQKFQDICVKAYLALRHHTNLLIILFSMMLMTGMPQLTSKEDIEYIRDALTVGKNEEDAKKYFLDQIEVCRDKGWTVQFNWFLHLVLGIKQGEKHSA
Procedure: as §1, §2, §3

PI3Kδ = molecular target: T3, PI3Kδ (Homo sapiens, UniProt O00329); assay: ADP-Glo Lipid Kinase Assay, PI3Kδ kinase activity; assay type: biochemical; details: ratio of IC50 values
T3 construct: purchased Carna #11-103
T3 sequence (O00329 whole entry): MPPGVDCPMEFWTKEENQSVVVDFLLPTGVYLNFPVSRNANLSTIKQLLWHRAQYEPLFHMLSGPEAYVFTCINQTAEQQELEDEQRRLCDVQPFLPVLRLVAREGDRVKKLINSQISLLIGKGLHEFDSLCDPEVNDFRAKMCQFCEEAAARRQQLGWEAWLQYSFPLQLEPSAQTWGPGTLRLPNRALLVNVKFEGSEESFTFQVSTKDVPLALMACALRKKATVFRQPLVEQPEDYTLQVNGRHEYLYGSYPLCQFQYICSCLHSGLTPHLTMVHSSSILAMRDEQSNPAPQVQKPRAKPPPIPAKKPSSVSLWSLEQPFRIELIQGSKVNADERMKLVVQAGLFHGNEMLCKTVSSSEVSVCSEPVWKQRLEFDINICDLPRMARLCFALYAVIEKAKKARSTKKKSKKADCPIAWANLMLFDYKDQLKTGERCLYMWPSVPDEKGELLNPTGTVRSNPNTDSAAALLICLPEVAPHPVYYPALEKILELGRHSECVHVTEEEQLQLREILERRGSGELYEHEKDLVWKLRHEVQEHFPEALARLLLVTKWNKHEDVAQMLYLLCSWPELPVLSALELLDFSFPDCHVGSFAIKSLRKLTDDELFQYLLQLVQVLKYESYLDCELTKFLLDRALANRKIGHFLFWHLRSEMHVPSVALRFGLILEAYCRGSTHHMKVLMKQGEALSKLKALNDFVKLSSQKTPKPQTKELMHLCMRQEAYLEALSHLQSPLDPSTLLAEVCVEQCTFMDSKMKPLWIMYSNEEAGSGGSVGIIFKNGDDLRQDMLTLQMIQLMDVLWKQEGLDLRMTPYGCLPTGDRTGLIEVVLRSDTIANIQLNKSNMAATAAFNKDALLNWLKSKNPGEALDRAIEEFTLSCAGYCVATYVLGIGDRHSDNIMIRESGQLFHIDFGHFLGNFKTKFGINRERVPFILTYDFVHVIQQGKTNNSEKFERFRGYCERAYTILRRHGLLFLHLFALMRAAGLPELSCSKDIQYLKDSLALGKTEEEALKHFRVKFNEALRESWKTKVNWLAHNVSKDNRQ
T3 sequence (P27986 whole entry partner): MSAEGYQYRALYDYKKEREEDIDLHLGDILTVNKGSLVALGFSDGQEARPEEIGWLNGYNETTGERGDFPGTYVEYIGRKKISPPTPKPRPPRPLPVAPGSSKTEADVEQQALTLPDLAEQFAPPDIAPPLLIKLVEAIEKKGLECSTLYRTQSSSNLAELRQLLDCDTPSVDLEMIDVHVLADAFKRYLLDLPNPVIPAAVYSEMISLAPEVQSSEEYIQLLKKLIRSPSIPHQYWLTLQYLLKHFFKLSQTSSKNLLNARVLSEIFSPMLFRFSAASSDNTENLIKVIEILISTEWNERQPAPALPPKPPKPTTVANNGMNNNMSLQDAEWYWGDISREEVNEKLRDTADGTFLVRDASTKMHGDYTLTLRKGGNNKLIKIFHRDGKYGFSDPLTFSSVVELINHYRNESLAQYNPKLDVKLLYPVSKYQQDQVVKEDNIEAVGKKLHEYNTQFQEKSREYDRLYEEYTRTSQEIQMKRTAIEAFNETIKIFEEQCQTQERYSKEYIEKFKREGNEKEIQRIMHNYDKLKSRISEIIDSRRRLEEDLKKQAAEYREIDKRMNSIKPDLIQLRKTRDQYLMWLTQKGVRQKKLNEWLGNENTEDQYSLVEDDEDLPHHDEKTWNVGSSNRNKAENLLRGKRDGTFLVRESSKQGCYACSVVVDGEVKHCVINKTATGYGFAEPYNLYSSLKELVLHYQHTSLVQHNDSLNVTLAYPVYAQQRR
Procedure: as §1, §2, §3

HCC1954 (H1047R) = assay: Proliferation inhibition of PI3Kα mutant cancer cells, Cell Titer-Glo, HCC1954; assay type: cell-based; details: Homo sapiens
Procedure: (§4) The proliferation inhibitory effect of the compounds of the examples on the PI3Kα mutant cancer cell lines (HCC1954, HGC-27 and MKN1) was detected by Cell Titer-Glo method. Cell lines were cultured in RPMI 1640 medium (Gibco #22400089) containing 10% FBS (Gibco #10091148) and 1% P/S (Hyclone #SV30010) under the condition of 37° C. and 5% CO2. The cells were collected before the experiment, and the cell density was adjusted after cell counting. The cells were seeded in a white 96-well plate (Corning #3610) at a density of 1000 to 10000 cells/well, and incubated in an incubator at 37° C. and 5% CO2 overnight. The prepared compound solutions of different concentrations and the corresponding solvent controls were added to the plate. The plate was again incubated in an incubator at 37° C. and 5% CO2 for 48 to 96 hours. Then the cell plate and its contents were equilibrated to room temperature. 20 to 100 μL of Cell Titer-Glo solution (Promega #G7573) was added to each well, and the plate was shaken and mixed well, then incubated at room temperature for 5 to 30 minutes in the dark. The chemiluminescence was measured by a SynergyH1 microplate reader from BioTek.
(§5) The percentage inhibition data of the compound-treated well was calculated from solvent control wells on the plate {% inhibition=100−([…])×100}. IC50 values were calculated using GraphPad prism and using a four-parameter nonlinear logistic formula to fit the data of different concentrations and corresponding percent inhibition.

MKN1 (E545K) = assay: Proliferation inhibition of PI3Kα mutant cancer cells, Cell Titer-Glo, MKN1; assay type: cell-based; details: Homo sapiens, MKN-1
Procedure: as §4, §5

HGC-27 (E542K) = assay: Proliferation inhibition of PI3Kα mutant cancer cells, Cell Titer-Glo, HGC-27; assay type: cell-based; details: Homo sapiens
Procedure: as §4, §5

T1 sequence (P42338 whole entry): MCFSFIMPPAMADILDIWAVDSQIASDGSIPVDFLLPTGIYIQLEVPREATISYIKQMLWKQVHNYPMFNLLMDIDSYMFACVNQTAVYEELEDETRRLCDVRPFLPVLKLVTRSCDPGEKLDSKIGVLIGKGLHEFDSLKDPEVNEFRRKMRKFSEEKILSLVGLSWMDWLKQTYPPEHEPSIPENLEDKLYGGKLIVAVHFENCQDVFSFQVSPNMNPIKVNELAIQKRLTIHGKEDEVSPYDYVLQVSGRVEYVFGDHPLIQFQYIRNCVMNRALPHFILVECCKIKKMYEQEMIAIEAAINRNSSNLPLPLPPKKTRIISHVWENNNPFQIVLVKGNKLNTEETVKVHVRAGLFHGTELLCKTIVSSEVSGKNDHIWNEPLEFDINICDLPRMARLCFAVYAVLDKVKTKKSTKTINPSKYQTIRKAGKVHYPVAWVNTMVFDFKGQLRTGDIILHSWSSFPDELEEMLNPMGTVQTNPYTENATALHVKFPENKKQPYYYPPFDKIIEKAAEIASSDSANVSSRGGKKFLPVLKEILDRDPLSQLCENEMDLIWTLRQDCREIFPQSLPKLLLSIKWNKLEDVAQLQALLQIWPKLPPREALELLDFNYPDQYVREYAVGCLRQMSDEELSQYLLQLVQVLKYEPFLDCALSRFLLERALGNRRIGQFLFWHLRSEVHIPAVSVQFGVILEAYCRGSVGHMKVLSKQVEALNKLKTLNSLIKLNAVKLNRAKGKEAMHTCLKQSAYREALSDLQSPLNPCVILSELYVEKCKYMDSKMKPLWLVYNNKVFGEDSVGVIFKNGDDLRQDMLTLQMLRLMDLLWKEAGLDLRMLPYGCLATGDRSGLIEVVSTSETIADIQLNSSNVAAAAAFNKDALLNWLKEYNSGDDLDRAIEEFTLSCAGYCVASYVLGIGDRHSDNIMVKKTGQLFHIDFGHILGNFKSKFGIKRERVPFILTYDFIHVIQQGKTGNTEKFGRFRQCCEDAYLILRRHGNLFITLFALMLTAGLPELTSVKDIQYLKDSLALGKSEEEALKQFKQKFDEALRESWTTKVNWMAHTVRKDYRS
T1 sequence (P27986 whole entry partner): as the sequence (P27986 whole entry partner) above

Row | SMILES | Selectivity of PI3Kα vs PI3Kβ (PI3Kβ) | Selectivity of PI3Kα vs PI3Kγ (PI3Kγ) | Selectivity of PI3Kα vs PI3Kδ (PI3Kδ) | IC50 (HCC1954 (H1047R)) | IC50 (MKN1 (E545K)) | IC50 (HGC-27 (E542K))
1 | CC(Nc1ccc2c(c1)OCCn1cc(N3C(=O)OC(C)[C@H]3C(F)F)nc1-2)C(N)=O (stereo in doubt) [Example 26, (R)-2-((2-((4S,5R)-4-(difluoromethyl)-5-methyl-2-oxooxazolidin-3-yl)-5,6-dihydrobenzo[f]imidazo[1,2-d][1,4]oxazepin-9-yl)amino)propionamide] | 1101 | 214 | 125 | 0.16 µM | 0.508 µM | 0.325 µM
2 | C[C@H](Nc1ccc2c(c1)OCCn1c-2nc(N2C(=O)OC[C@H]2C(F)F)c1F)C(N)=O [Example 1, (S)-2-((2-((S)-4-(difluoromethyl)-2-oxooxazolidin-3-yl)-3-fluoro-5,6-dihydrobenzo[f]imidazo[1,2-d][1,4]oxazepin-9-yl)amino)propionamide] | >1266 | 226 | 177 | – | – | –
3 | CC(C)[C@H](Nc1ccc2c(c1)OCCn1cc(N3C(=O)OC[C@H]3C(F)F)nc1-2)C(N)=O [Example 14, (S)-2-((2-((S)-4-(difluoromethyl)-2-oxooxazolidin-3-yl)-5,6-dihydrobenzo[f]imidazo[1,2-d][1,4]oxazepin-9-yl)amino)-3-methylbutanamide] | 358 | 112 | 103 | 0.204 µM | 0.615 µM | 0.417 µM
4 | C[C@@H](C(N)=O)N(C)c1ccc2c(c1)OCCn1cc(N3C(=O)OC[C@H]3C(F)F)nc1-2 [Example 19, (S)-2-((2-((S)-4-(difluoromethyl)-2-oxooxazolidin-3-yl)-5,6-dihydrobenzo[f]imidazo[1,2-d][1,4]oxazepin-9-yl)(methyl)amino)propionamide] | 329 | 648 | 29 | 0.112 µM | 0.214 µM | 0.169 µM
5 | NC(=O)[C@@H]1CCN1c1ccc2c(c1)OCCn1cc(N3C(=O)OC[C@H]3C(F)F)nc1-2 [Example 21, (S)-1-(2-((S)-4-(difluoromethyl)-2-oxooxazolidin-3-yl)-5,6-dihydrobenzo[f]imidazo[1,2-d][1,4]oxazepin-9-yl)azetidine-2-carboxamide] | – | – | – | 0.205 µM | 0.399 µM | 0.396 µM
6 | C[C@H](Nc1ccc2c(c1)OCCn1cc(N3C(=O)N(C)C[C@H]3C(F)F)nc1-2)C(N)=O [Example 24, (S)-2-((2-((S)-5-(difluoromethyl)-3-methyl-2-oxoimidazolidin-1-yl)-5,6-dihydrobenzo[f]imidazo[1,2-d][1,4]oxazepin-9-yl)amino)propionamide] | 1238 | 80 | 75 | – | – | –
7 | C[C@H](Nc1ccc2c(c1F)OCCn1cc(N3C(=O)OC[C@H]3C(F)F)nc1-2)C(N)=O [Example 31, (S)-2-((2-((S)-4-(difluoromethyl)-2-oxooxazolidin-3-yl)-8-fluoro-5,6-dihydrobenzo[f]imidazo[1,2-d][1,4]oxazepin-9-yl)amino)propionamide] | 178 | 87 | 59 | 0.226 µM | 0.653 µM | 0.499 µM
8 | C[C@H](Nc1cc(F)c2c(c1)OCCn1cc(N3C(=O)OC[C@H]3C(F)F)nc1-2)C(N)=O [Example 32, (S)-2-((2-((S)-4-(difluoromethyl)-2-oxooxazolidin-3-yl)-11-fluoro-5,6-dihydrobenzo[f]imidazo[1,2-d][1,4]oxazepin-9-yl)amino)propionamide] | 536 | 98 | 88 | – | – | –
9 | COC[C@H](Nc1ccc2c(c1)OCCn1cc(N3C(=O)OC[C@H]3C(F)F)nc1-2)C(N)=O [Example 43, (S)-2-((2-((S)-4-(difluoromethyl)-2-oxooxazolidin-3-yl)-5,6-dihydrobenzo[f]imidazo[1,2-d][1,4]oxazepin-9-yl)amino)-3-methoxypropionamide] | – | – | – | 0.222 µM | 0.368 µM | 0.531 µM
10 | C[C@H](Nc1ccc2c(c1)OCCn1cc(N3C(=O)CC[C@H]3C(F)F)nc1-2)C(N)=O [Example 46, (S)-2-((2-((S)-2-(difluoromethyl)-5-oxopyrrolidin-1-yl)-5,6-dihydrobenzo[f]imidazo[1,2-d][1,4]oxazepin-9-yl)amino)propionamide] | 785 | 243 | 90 | 0.184 µM | 0.268 µM | 0.186 µM
11 | COC[C@H](Nc1ccc2c(c1F)OCCn1cc(N3C(=O)SC[C@H]3C(F)F)nc1-2)C(N)=O [Example 51, (S)-2-((2-((R)-4(difluoromethyl)-2-oxothiazolidin-3-yl)-8-fluoro-5,6-dihydrobenzo[f]imidazo[1,2-d][1,4]oxazepin-9-yl)amino)-3-methoxypropionamide] | 157 | 170 | 51 | 0.243 µM | 0.426 µM | 0.455 µM
12 | NC(=O)[C@@H]1CCCN1c1ccc2c(c1)OCCn1cc(N3C(=O)SC[C@H]3C(F)F)nc1-2 [Example 53, (S)-1-(2-((R)-4-(difluoromethyl)-2-oxothiazolidin-3-yl)-5,6-dihydrobenzo[f]imidazo[1,2-d][1,4]oxazepin-9-yl)pyrrolidine-2-carboxamide] | 423 | 254 | 43 | 0.04 µM | 0.066 µM | 0.077 µM
13 | C[C@@H](C(N)=O)N(C)c1ccc2c(c1)OCCn1cc(N3C(=O)SC[C@H]3C(F)F)nc1-2 [Example 54, (S)-2-((2-((R)-4-(difluoromethyl)-2-oxothiazolidin-3-yl)-5,6-dihydrobenzo[f]imidazo[1,2-d][1,4]oxazepin-9-yl)(methyl)amino)propionamide] | 238 | 217 | 31 | 0.029 µM | 0.042 µM | 0.032 µM
